Source: article PMC11668526, “The satiety hormone cholecystokinin gates reproduction in fish by controlling gonadotropin secretion” (eLife, 2024)
“Also recorded” adds a separate entry of the source.

Legend:
LH cells = assay: Ex vivo calcium imaging (RCaMP2), LH cells; type: cell-based, zebrafish
Description: (§1) Overall, whereas GnRH elicited a response in 95% of LH cells, only 56% of FSH cells responded to the treatment in the same fish (Figure 3E).
(§2) To functionally test the effect of CCK on gonadotroph activity, we applied the peptide (300 μl of 30 μg/ml CCK, 78.74 µM) to our ex vivo preparation and monitored the calcium response of the cells. […] The calcium response in FSH cells was highly synchronized (mean max cross-correlation coefficient, 0.7 ± 0.04; Figure 4B; Figure 4—figure supplement 1B). By contrast, the response of LH cells to CCK application was characterized by low mean of max cross-correlation coefficient values (0.43 ± 0.05; Figure 4B; Figure 4—figure supplement 1B).
(§3) Adult fish were euthanized using ice-cold water and decapitated. The head was transferred to ice-cold ACSF (124 mM NaCl, 3 mM KCl, 2 mM CaCl2, 2 mM MgSO4, 1.25 mM NaH2PO4, 26 mM NaHCO3, and 10 mM glucose (pH 7.2)) perfused with 5% CO2 and 95% O2. The heads were further dissected under a stereomicroscope. The ventral side of the head, including the jaw, gills, and mucus, was removed using fine forceps and microscissors, the optic nerves were cut and the eyes were removed. Next, the bone at the base of the skull that covers the pituitary (sella turcica) was removed using fine forceps. The head was placed in a dedicated chamber (Figure 3B) and stabilized with a slice anchor. The chamber had one inlet and one outlet, allowing for a constant flow of ACSF at a rate of 1 ml/min, and an additional inlet that was placed in proximity to the tissue for injections of stimuli. The total volume of ACSF in the chamber was 3 ml.
Imaging was performed in an inverted confocal fluorescent microscope (Leica SP8). R-CaMP2 activity was imaged at 4–10 Hz using the resonant scanner. The laser wavelength was 540 nm and the emission band was 630 nm. Images were taken using the 20x objective. Each imaging session lasted 10 min. Before and after each session, the tissue was imaged once for GFP (excitation, 488 nm, and emission, 530 nm) and R-CaMP2 (540 nm and 590 nm) in two separate channels. Images were processed using the Fiji program ([Schindelin et al., 2012]) for resolution using the Gaussian Blur filter and motion correction using the moco plugin ([Dubbs et al., 2016]).
(§4) To measure hormone secretion in response to salmon GnRH analogue (D-Ala6,Pro9-Net)-mammalian GnRH (Bachem Inc, Torrance, CA) or zebrafish CCK [D-Y-[SO3H]-L-G-W-M-D-F, synthesized by GL Biochem] stimulation, the medium was collected through the chamber outlet during the entire imaging session (10 ml per session in total). Each pituitary was imaged three times for 10 min: before, during, and after stimulation. The stimulus was applied manually as a pulse of 300 μl of 30 μg/μl (78.74 µM) peptide during the first 30 s of the imaging session. Hormones were measured in the fractions before and after stimulation using ELISA developed for common carp, which was established in the Levavi-Sivan lab using recombinant carp gonadotropins produced in yeast, and had been previously shown to be suitable for zebrafish ([Whitlock et al., 2019]).
Tissue viability was validated by monitoring the morphology and activity of the cells, looking at granulation and calcium changes. This specific preparation was also viable 2 hr after dissection, when all the cells responded to the different stimuli.
A composite of GFP-positive and RCaMP-positive cells was created to distinguish between LH and FSH cells. […]

FSH cells = assay: Ex vivo calcium imaging (RCaMP2), FSH cells; type: cell-based, zebrafish; settings: 78.74 µM
Description: as §1, §2
as §3, with “The chamber had one inlet and one outlet, allowing for a constant flow of ACSF at a rate of 1 ml/min, and an additional inlet that was placed in proximity to the tissue for injections of stimuli. The total volume of ACSF in the chamber was 3 ml.” left out
as §4, with “Each pituitary was imaged three times for 10 min: before, during, and after stimulation. The stimulus was applied manually as a pulse of 300 μl of 30 μg/μl (78.74 µM) peptide during the first 30 s of the imaging session.” left out, “2019]). […]” for “2019]).”

LH secretion = assay: Ex vivo LH secretion into perfused medium, ELISA; type: cell-based, zebrafish; settings: GnRH pulse 300 μl of 30 μg/μl, n=5, paired t-test
Excerpt: (§5) The calcium response observed in LH and FSH cells upon GnRH and CCK stimulation indicates a preferential stimulatory effect of the neuropeptides on each cell type. The effect of these neuropeptides on LH and FSH secretion was examined in order to determine the functional outcome of the stimulation. For that, we collected the medium perfused through our ex vivo system (Figure 3A and B) during our calcium imaging assays. The medium was subsequently used to measure LH and FSH secretion using a specific ELISA validated for zebrafish GTHs ([Hollander-Cohen et al., 2018]).
(§6) Adult fish were euthanized using ice-cold water and decapitated. […]
as §4, with “Each pituitary was imaged three times for 10 min: before, during, and after stimulation. The stimulus was applied manually as a pulse of 300 μl of 30 μg/μl (78.74 µM) peptide during the first 30 s of the imaging session.” left out

FSH secretion = assay: Ex vivo FSH secretion into perfused medium, ELISA; type: cell-based, zebrafish; settings: GnRH pulse 300 μl of 30 μg/μl (78.74 µM), n=5, paired t-test
Excerpt: as §5, §6
as §4, with “Each pituitary was imaged three times for 10 min: before, during, and after stimulation. The stimulus was applied manually as a pulse of 300 μl of 30 μg/μl (78.74 µM) peptide during the first 30 s of the imaging session.” left out

FSH plasma levels = assay: In vivo injection: FSH plasma levels (ELISA); parameters: species or system zebrafish; settings: intraperitoneal, 100 ng/g body weight, 2 hr; n=10; Fig 5C and D
Description: (§7) Six-month-old zebrafish (five males and five females) were injected intraperitoneally with the following: (1) fish CCK peptide [(D-Y[SO3H]-L-G-W-M-D-F-NH (2), synthesized by GL Biochem] at a concentration of 10 ng/g or 100 ng/g body weight, 2) salmon GnRH analogue (D-Ala6,Pro9-Net)-mammalian GnRH (Bachem Inc, Torrance, CA) at a concentration of 100 ng/g body weight, (3) similar volumes of saline. Two hours post-injection, the fish were sedated using MS-222, bled from the heart as previously described ([Biran et al., 2012]), and decapitated. Pituitaries were dissected under a stereomicroscope and placed in Total RNA Isolation Reagent (Trizol). From each fish, between 15 μl and 20 μl of blood was collected. The blood was centrifuged at 970 × g 30 min and the plasma was separated and stored at −20 °C. LH and FSH expression in the pituitary was measured using real-time PCR (see Figure 5—source data 1 for primer list). RNA extraction, reverse transcription of RNA, and real-time PCR were carried out as previously described ([Biran et al., 2008]). FSH secretion was measured in the plasma using ELISA for common carp, which was established in the Levavi Sivan lab using recombinant carp gonadotropins from in the yeast, and had been previously shown to be suitable for zebrafish ([Hollander-Cohen et al., 2018]).

[1] = tested on: LH expression in the pituitary; assay: In vivo injection: LH expression in pituitary (real-time PCR); parameters: species or system zebrafish; settings: intraperitoneal, 100 ng/g body weight, 2 hr, n=10
Description: as §7

[2] = tested on: three types of GnRH receptors that exist in fish; parameters: method as in Zohar and Mylonas, 2001; settings: ref Zohar and Mylonas, 2001; cited from earlier work
[3] = tested on: FSH cells in pituitary cell culture; settings: ref Lin and Ge, 2009; cited from earlier work
Excerpt: GnRH has long been considered the common stimulator of gonadotropin secretion in vertebrates. However, accumulating evidence for GnRH-independent FSH secretion in several mammalian species has questioned the regulatory role of GnRH ([McCann et al., 2001]; [Padmanabhan et al., 1997]; [Culler and Negro-Vilar, 1987]; [Pau et al., 1991]).

## (D-Ala6,Pro9-Net)-mammalian GnRH
LH cells; ex vivo brain-pituitary preparation, GnRH puff 78.74 µM, pH 7.2 ACSF, Fig 3-supplement 2: mean of 20 cell traces per fish, 3 females, 3 males
  calcium transient average half width, LH cells: 48.6 s
LH cells; ex vivo, GnRH 78.74 µM, n=10
  calcium response to GnRH, LH cells: synchronized increase of calcium in all luteinizing hormone (LH) cells; also recorded: strong and slow calcium rise
LH cells; ex vivo, GnRH puff 78.74 µM, Fig 3-supplement 2: mean of 20 cell traces per fish, 3 females, 3 males
  calcium transient average amplitude, LH cells: 1.99 ∆F/F
LH cells; ex vivo, GnRH puff 78.74 µM, coefficient values higher than the 80 percentiles of basal values, n=10 (3 males, 7 females), p<0.001 vs FSH cells
  percentage of cells responsive to GnRH stimulus, LH cells: 95%
LH cells; ex vivo, after GnRH puff 78.74 µM, basal 0.26 ± 0.02, n=10 (3 males, 7 females), mean ± SEM, p<0.0001
  mean of max cross-correlation coefficient of calcium traces, LH cells: 0.66 ± 0.05
FSH cells; GnRH 300 μl, n=10
  calcium response to GnRH, FSH cells: partial increase in follicle-stimulating hormone (FSH) cells; also recorded: inconsistent response of FSH cells
FSH cells; GnRH puff 300 μl, coefficient values higher than the 80 percentiles of basal values, same fish, n=10 (3 males, 7 females)
  percentage of cells responsive to GnRH stimulus, FSH cells: 56%
FSH cells; GnRH puff 300 μl, percent of fish, n=10
  fish displaying an increase in cross-correlation values from the basal state, FSH cells: 50%
LH secretion
  LH secretion response to GnRH: significant rise in LH secretion
FSH secretion
  FSH secretion response to GnRH: not significant from the basal secretion
FSH plasma levels
  FSH expression and secretion response to GnRH injection: did not reach statistical significance
[1]
  LH expression in the pituitary after GnRH injection: only affected LH expression in the pituitary; also recorded: Expression level increased significantly only in response to GnRH injection
[2]
  binding to fish GnRH receptors: effectively binds to the three types of GnRH receptors that exist in fish
[3]
  FSH cells response to GnRH stimuli in pituitary cell culture: lack of FSH cells response to GnRH stimuli in pituitary cell culture
